Reference: patent US10011818B2, “Method for in vitro oocyte maturation” (CHINA AGRICULTURE UNIVERSITY, priority 2012, dated 2018)
Where two headings read alike, the source gives them in different places.

How the values were obtained:
[1] = test system: oocyte nuclear maturation; conditions: cited from earlier work
bovine oocytes [2] = experiment: Effect of CNP pretreatment (pre-IVM) on meiotic resumption of bovine oocytes, nuclear morphology by DAPI staining; type: cell-based; conditions: for No. of GV oocytes / No. of GVBD oocytes / GV oocytes (%) / GVBD oocytes (%): pre-IVM 6 hours; for GV oocytes (%) / GVBD oocytes (%): mean ± SEM
Procedure: (§1) Bovine ovaries were obtained from a local slaughterhouse, transported at 30-35° C. to the laboratory within 1 hour, and washed in warmed normal saline containing 2% Penicillin G-Streptomycin. Ovarian antral follicles (3-8 mm) were aspirated using an 18-gauge needle. cumulus-oocyte complexes (COCs) with homogenous oocyte cytoplasm and complete, compacted, and multilayered CCs (Grade-1) or complete but fewer than three layers of CCs (Grade-2), were collected using micropipettes.
(§2) Grade-1 and -2 COCs were washed in the washing buffer (HEPES-TCM199) for three times, and then washed in pre-IVM medium (TCM199 containing 3 mg/ml BSA and CNP at different concentrations (50, 100, 200 and 400 nM) for two times. After that, COCs were transfer into pre-IVM medium (pre-warmed for 2 hours) in 4-well plate (500 μl pre-IVM medium and 50 COCs in each well) and cultured for 6 hours at 38.5° C., in humidified air with 5% CO2. After pre-IVM phase, a proportion of COCs are digested with hyaluronidase to remove cumulus cells. To determine the most preferable concentration of CNP for pre-VIM, meiosis kinetics of oocytes was evaluated according to nuclear morphology using DAPI staining under a fluorescence microscope. The oocytes without pre-IVM phase are used as control.

[3] = test system: bovine oocytes and subsequent preimplantation embryos
oocyte meiotic arrest = conditions: mice, Zhang et al., 2010; cited from earlier work
[4] = test system: oocyte maturation and embryonic development; conditions: CNP pretreatment 100 nM alone, without extended IVM; cited from earlier work
bovine oocytes [5] = experiment: Effect of CNP pre-IVM and extended IVM on developmental rate of bovine oocytes after IVF (cleavage, blastocyst); type: cell-based; conditions: for No. of cleavage / cleavage (%) / No. of blastocysts / blastocysts (%): CNP 200 nM pre-IVM 6 h; for No. of cleavage: day 2; for cleavage (%): day 2, mean ± SEM; for No. of blastocysts: day 7; for blastocysts (%): day 7, mean ± SEM
Procedure: as §1, §2
After cultured in pre-IVM medium containing 200 nM CNP, COCs are further cultured in extended-IVM medium (TCM199 supplemented with 10 μg/ml FSH, […], 1 μg/ml E2, 10 ng/ml EGF, 10% FBS) at 38.5° C., in humidified air with 5% CO2. To determine the most preferable duration for extended-IVM, COCs were cultured for 24, 26 or 28 hours. In addition, COCs without pre-IVM phase, are also cultured in […] for 24, 26 or 28 hours as controls.
After maturation, the COCs were fertilized in BO medium for 8 hours at 39° C. under 5% CO2 in a humidified atmosphere. After fertilization, the presumptive zygotes were transferred to 100 μl CR1 culture medium droplets (15 zygotes in each droplets) at 39° C. in a humidified atmosphere. The culture medium was changed every 2 days during the culture period. The percentage cleavage and rates of subsequent embryo development to the blastocyst stage were recorded on day 2 and 7, respectively.

[6] = literature, chemical meiotic inhibitors

CN(C)c1ncnc2nc[nH]c12 [6-DMAP]
inhibitory effect on nuclear maturation [1, 6]: evident inhibitory effect

O=C1CCCO1 [butyrolactone]
inhibitory effect on nuclear maturation [1, 6]: evident inhibitory effect

C-type natriuretic peptide [CNP]
No. of GV oocytes (bovine oocytes [2]; CNP 50 nM): 64 | No. of GVBD oocytes (bovine oocytes [2]; CNP 50 nM): 37 | GV oocytes (%) (bovine oocytes [2]; CNP 50 nM): 63.4 ± 3.1% | GVBD oocytes (%) (bovine oocytes [2]; CNP 50 nM): 21.3 ± 3.1% | No. of GV oocytes (bovine oocytes [2]; CNP 100 nM): 68 | No. of GVBD oocytes (bovine oocytes [2]; CNP 100 nM): 30 | GV oocytes (%) (bovine oocytes [2]; CNP 100 nM): 69.4 ± 2.6% | GVBD oocytes (%) (bovine oocytes [2]; CNP 100 nM): 30.6 ± 2.6% | rate of oocytes maintaining at GV stage versus control (bovine oocytes [2]; CNP 200 nM, P<0.01): significant higher | No. of GV oocytes (bovine oocytes [2]; CNP 200 nM): 79 | No. of GVBD oocytes (bovine oocytes [2]; CNP 200 nM): 18 | GV oocytes (%) (bovine oocytes [2]; CNP 200 nM): 81.4 ± 2.1% | GVBD oocytes (%) (bovine oocytes [2]; CNP 200 nM): 19.6 ± 2.1% | No. of GV oocytes (bovine oocytes [2]; CNP 400 nM): 79 | No. of GVBD oocytes (bovine oocytes [2]; CNP 400 nM): 27 | GV oocytes (%) (bovine oocytes [2]; CNP 400 nM): 74.5 ± 2.8% | GVBD oocytes (%) (bovine oocytes [2]; CNP 400 nM): 25.5 ± 2.8% | inhibitory effect on meiotic resumption outside the range (bovine oocytes [2]; concentration higher than 400 nM or lower than 100 nM): no evident inhibitory effect | concentration of maximal inhibitory effect on meiotic resumption (bovine oocytes [2]; dose-dependent pattern, bovine oocytes): 200 nM | concentration range with significant inhibition of oocyte meiotic resumption (bovine oocytes [2]; pre-IVM pretreatment, bovine oocytes): 100 to 400 nM | adverse effect on bovine oocytes and subsequent preimplantation embryos [3]: doesn't show any evident adverse effect | preferable concentration of CNP for meiotic inhibition (oocyte meiotic arrest): 100 nM | oocyte maturation and embryonic development result [4]: could not lead to an evidently satisfying results | No. of cleavage (bovine oocytes [5]; extended-IVM 24 h, after IVF): 157 | cleavage (%) (bovine oocytes [5]; extended-IVM 24 h, after IVF): 81.3 ± 2.7% | No. of blastocysts (bovine oocytes [5]; extended-IVM 24 h, after IVF): 53 | blastocysts (%) (bovine oocytes [5]; extended-IVM 24 h, after IVF): 27.5 ± 1.3% | No. of cleavage (bovine oocytes [5]; extended-IVM 26 h, after IVF): 89 | cleavage (%) (bovine oocytes [5]; extended-IVM 26 h, after IVF): 87.1 ± 0.75% | No. of blastocysts (bovine oocytes [5]; extended-IVM 26 h, after IVF): 62 | blastocysts (%) (bovine oocytes [5]; extended-IVM 26 h, after IVF): 28.6 ± 0.7% | No. of cleavage (bovine oocytes [5]; extended-IVM 28 h, after IVF): 186 | cleavage (%) (bovine oocytes [5]; extended-IVM 28 h, after IVF): 88.3 ± 3.0% | No. of blastocysts (bovine oocytes [5]; extended-IVM 28 h, after IVF): 80 | blastocysts (%) (bovine oocytes [5]; extended-IVM 28 h, after IVF): 37.4 ± 2.5% | blastocyst rates (bovine oocytes [5]; CNP pre-IVM plus extended IVM (novel method)): significantly enhances blastocyst rates | cleavage rates versus counterparts without CNP pre-IVM (bovine oocytes [5]; CNP pre-treatment followed by extended IVM phase, after IVF): significantly higher

C[C@@H]1C[C@@H]([C@H](O)CC2CC(=O)NC(=O)C2)C(=O)[C@@H](C)C1 [cycloheximide]
inhibitory effect on nuclear maturation [1, 6]: evident inhibitory effect

CC[C@H](CO)Nc1nc(NCc2ccccc2)c2ncn(C(C)C)c2n1 [roscovitine]
inhibitory effect on nuclear maturation [1]: evident inhibitory effect
